Assay results published in patent publication US20240197604A1, “COMPOUNDS WITH COOLING SENSATION PROPERTIES” (Givaudan SA, priority 2021, published 2024).

Experiments:
hTRPM8 = molecular target: T1, hTRPM8 (Homo sapiens, UniProt Q7Z2W7); test: Assay on TRPM8 modulators: calcium imaging (Fluo-4, Flexstation 3) in HEK293 cell line stably expressing hTRPM8; format: cell-based; conditions: HEK293 cells stably expressing hTRPM8; Fluo-4 calcium imaging; sigmoidal dose-response fit; read-out: EC50 value (TRPM8 agonist, calcium influx)
T1 construct: expressed in transfected cells
T1 sequence (Q7Z2W7 whole entry): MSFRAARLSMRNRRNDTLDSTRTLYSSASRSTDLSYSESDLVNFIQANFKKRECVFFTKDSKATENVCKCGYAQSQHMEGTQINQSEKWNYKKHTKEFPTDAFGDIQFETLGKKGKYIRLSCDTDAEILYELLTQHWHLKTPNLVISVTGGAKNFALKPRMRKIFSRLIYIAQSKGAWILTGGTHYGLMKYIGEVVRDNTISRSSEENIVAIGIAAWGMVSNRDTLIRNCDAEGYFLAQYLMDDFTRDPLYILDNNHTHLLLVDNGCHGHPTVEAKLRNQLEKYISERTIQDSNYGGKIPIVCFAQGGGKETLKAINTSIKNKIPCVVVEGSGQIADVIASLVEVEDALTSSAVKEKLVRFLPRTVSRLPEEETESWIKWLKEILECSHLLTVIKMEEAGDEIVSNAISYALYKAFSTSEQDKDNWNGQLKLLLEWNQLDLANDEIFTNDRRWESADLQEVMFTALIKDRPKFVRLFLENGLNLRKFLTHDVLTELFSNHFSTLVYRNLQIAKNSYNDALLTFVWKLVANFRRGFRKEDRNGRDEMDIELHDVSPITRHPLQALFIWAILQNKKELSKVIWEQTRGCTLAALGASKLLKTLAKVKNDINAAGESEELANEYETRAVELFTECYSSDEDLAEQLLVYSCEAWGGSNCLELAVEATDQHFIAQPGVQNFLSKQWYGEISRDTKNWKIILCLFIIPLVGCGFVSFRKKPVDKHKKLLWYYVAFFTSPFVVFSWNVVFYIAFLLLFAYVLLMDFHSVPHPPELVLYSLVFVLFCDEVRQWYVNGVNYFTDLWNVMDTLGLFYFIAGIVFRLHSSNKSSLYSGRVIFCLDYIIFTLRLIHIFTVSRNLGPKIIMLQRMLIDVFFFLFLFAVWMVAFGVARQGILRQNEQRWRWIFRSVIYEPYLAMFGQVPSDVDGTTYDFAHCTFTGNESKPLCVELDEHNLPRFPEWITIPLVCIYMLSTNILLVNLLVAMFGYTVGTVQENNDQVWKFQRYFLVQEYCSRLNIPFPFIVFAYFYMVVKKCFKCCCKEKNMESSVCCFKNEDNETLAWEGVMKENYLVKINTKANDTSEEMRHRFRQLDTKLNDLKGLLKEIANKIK
Protocol: A HEK293 cell line stably expressing hTRPM8 was generated according to Klein et al., (Chem. Senses 36: 649-658, 2011) and receptor activation was monitored by calcium imaging in a Flexstation. For Ca-imaging assays of TRPM8 channel activation, cells were seeded on day 0 at a density of 12000 cells per well in Dulbecco's modified Eagle medium (DMEM) containing 9% foetal bovine serum in black, clear bottom 96-well plates that had been coated with 0.001% polyethyleneimine (molecular weight=60 000, Acros Organics). On day 2, agonists were evaluated via calcium imaging using Fluo-4. Briefly, growth medium was discarded, and the cells were incubated in the dark for 1 h at 37° C. in 50 μL loading buffer consisting of 2.7 μM Fluo-4 AM (Invitrogen) and […] probenecid (Sigma-Aldrich) in DMEM (without serum). […] The cells were then washed five times with 100 μL assay buffer and then calcium influx to serial dilutions of 2-(1-(2-(methylthio)propanoyl)piperidin-2-yl)-5-(p-tolyl)-1H-imidazolium carboxyformate was measured in a Flexstation 3 (Molecular Devices). […] Fluorescence was continuously monitored for 15 seconds prior to ligand addition and for 105 seconds after ligand addition, for a total of 120 seconds. Maximal receptor activation in relation to solvent control and relative to 31.6 μM menthol is determined. […]

[1] = Sensory evaluation in model dentifrice by a panel of trained flavourists; format: in vivo, human; conditions: 10 ppm in unflavored model dentifrice, brushing with 1 g for 60 seconds, no rinsing
Protocol: The oxalate of 2-(methylthio)-1-(2-(5-(p-tolyl)imidazol-2-yl)piperidin-1-yl)propan-1-one (prepared according to Example 1d) was dissolved at a concentration of 1 wt-% in propylene glycol. This solution was then dispersed in an appropriate quantity to obtain the desired final concentration of 10 ppm (parts per million) of the test compound into a model, unflavored dentifrice, the formula of which is given below (ingredients obtained from the suppliers respectively indicated in parenthesis).
A panel of trained flavourists evaluated the dentifrice containing the oxalate, by brushing their teeth with 1 g of the dentifrice using a toothbrush for 60 seconds, followed by spitting, without rinsing the mouth afterwards for the duration of the evaluation. The flavourists evaluated and recorded the cooling performance as well as other sensorial and organoleptic attributes at different time-points over a period of 90 minutes. The following tasting notes were recorded: Good coolant. Clean, with a pleasant, mild tingling effect. Active in all areas of the mouth.

EC50 (hTRPM8): < 10 nM
SMILES: CSC(C)C(=O)N1CCCCC1c1ncc(-c2ccc(C)cc2)[nH]1.O=C(O)C(=O)O (stereo not shown) [Example 1d, 2-(1-(2-(methylthio)propanoyl)piperidin-2-yl)-5-(p-tolyl)-1H-imidazolium carboxyformate]
onset of cooling effect (tasting notes) [1]: Fast acting (upfront cooling) with effect perceived already during brushing
cooling performance (tasting notes) ([1]; evaluated over 90 minutes): Good coolant
longevity of cooling effect (tasting notes) ([1]; evaluated over 90 minutes): Strong cooling peak with long-lasting effect up to one hour
